Article PMC2692672 (Journal of molecular biology, 2009)

Target: GRP94 (Canis lupus, UniProt P41148, DEL287-327)
Experiment: co-crystal structure
Format: binding

COC(=O)c1c(O)cc(O)c(Cl)c1CCC(=O)NC1=CC(=O)C(OC)=CC1=O [Radamide]
Kd: 0.52 ± 0.13 µM
